Experimental data published in patent US20260070945A1, “MACROCYCLIC IMMUNOMODULATORS” (Bristol-Myers Squibb Company, priority 2022, published 2026).
Where a SMILES comes first, the peptide text is derived from it. Bridges are numbered along the chain shown (N, C = ends). [ ]: non-standard residue; d: D form. The star is where a group is joined. ξ: configuration not given here. Phe(4-COOH) = N[C@@H](Cc1ccc(C(=O)O)cc1)C(=O)O; Bip = N[C@@H](Cc1ccc(-c2ccccc2)cc1)C(=O)O; Phe(3-Me) = Cc1cccc(C[C@H](N)C(=O)O)c1; Val(3-OH) = CC(C)(O)[C@H](N)C(=O)O; 4Pal = N[C@@H](Cc1ccncc1)C(=O)O; 3Thi = N[C@@H](Cc1ccsc1)C(=O)O; Cha = N[C@@H](CC1CCCCC1)C(=O)O; Thr(3ξ) = CC(O)[C@H](N)C(=O)O; Carboxymethyl = O=C(O)C*; NMeA = CN[C@@H](C)C(=O)O; Orn = NCCC[C@H](N)C(=O)O; Aun = NCCCCCCCCCCC(=O)O; Dab = NCC[C@H](N)C(=O)O; AEEA = NCCOCCOCC(=O)O

The compounds below were run against T1, PD-1/PD-L1 interaction (PE-labeled human PD-L1-Ig binding to Jurkat cell line over-expressing human PD-1) (Homo sapiens, UniProt Q15116) (assay: Jurkat-PD-1 Cell Binding High-Content Screening Assay (CBA)). Details: PE-labeled PD-L1-Ig 20 nM final, Jurkat-hPD-1 cells; read-out: Jurkat HPD1 PDL1 IC50.
T1 construct: expressed in transfected cells; host or cells: Jurkat
Procedure, shortened: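 Compound is added first to the PD-1-expressing Jurkat cells and held 2 h at 37 °C in serum-containing DMEM. The fluorescent PD-L1 fusion follows at 20 nM final for 1 h. Fixed, Hoechst-stained cells are then imaged for bound label.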

T1 sequence (Q15116 25-288): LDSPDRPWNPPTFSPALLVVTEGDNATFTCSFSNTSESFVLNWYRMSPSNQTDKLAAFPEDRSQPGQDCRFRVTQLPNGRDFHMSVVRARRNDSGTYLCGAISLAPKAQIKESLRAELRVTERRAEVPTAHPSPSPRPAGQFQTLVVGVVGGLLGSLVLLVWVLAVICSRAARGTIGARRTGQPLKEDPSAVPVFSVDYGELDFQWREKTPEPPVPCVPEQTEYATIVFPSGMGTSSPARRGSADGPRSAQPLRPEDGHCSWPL

In order of rising IC50:
1. CC(=O)NCCCC[C@@H]1NC(=O)[C@H](C(C)C)NC(=O)[C@H](CC2CCCCC2)NC(=O)[C@H](CCN)NC(=O)[C@@H](CC(C)C)NC(=O)[C@H](C)N(C)C(=O)[C@H](CCC(N)=O)NC(=O)[C@H](Cc2ccc(-c3ccccc3)cc2)NC(=O)[C@H](Cc2ccc(OCC(=O)O)cc2)NC(=O)[C@H](Cc2cccc(C)c2)NC(=O)[C@H](CC(=O)O)NC(=O)[C@H](Cc2ccc(OCC(=O)O)cc2)NC(=O)[C@H](Cc2ccncc2)NC(=O)CSC[C@@H](C(=O)N[C@@H](CCN)C(=O)NCCOCCOCC(=O)NCCCCCCCCCCC(=O)O)NC1=O [Example 2493] ({CH2CO}-[4Pal]Y(Carboxymethyl)D[Phe(3-Me)]Y(Carboxymethyl)[Bip]Q[NMeA][dL][Dab][Cha]VK(Ac)C[Dab][AEEA][Aun]-OH; thioether N-14)  0.0048 µM
2. CC(C)C[C@H]1NC(=O)[C@H](C)N(C)C(=O)[C@H](CCC(N)=O)NC(=O)[C@H](Cc2ccc(-c3ccccc3)cc2)NC(=O)[C@H](C(C)C)NC(=O)[C@H](Cc2c[nH]c3ccccc23)NC(=O)[C@H](CC(=O)O)NC(=O)[C@H](Cc2ccc(OCC(=O)O)cc2)NC(=O)[C@H](Cc2ccncc2)NC(=O)CSC[C@@H](C(=O)N[C@@H](CCN)C(=O)NCCOCCOCC(=O)NCCCCCCCCCCC(=O)O)NC(=O)[C@H](CCC(=O)O)NC(=O)[C@H](C(C)(C)O)NC(=O)[C@H](CC2CCCCC2)NC(=O)[C@H](CCN)NC1=O [Example 2494] ({CH2CO}-[4Pal]Y(Carboxymethyl)DWV[Bip]Q[NMeA][dL][Dab][Cha][Val(3-OH)]EC[Dab][AEEA][Aun]-OH; thioether N-14)  0.0092 µM
3. Cc1cccc(C[C@@H]2NC(=O)[C@H](CC(=O)O)NC(=O)[C@H](Cc3ccc(OCC(=O)O)cc3)NC(=O)[C@H](Cc3ccncc3)NC(=O)CSC[C@@H](C(=O)N[C@@H](CCN)C(=O)NCCOCCOCC(=O)NCCCCCCCCCCC(=O)O)NC(=O)[C@H](CCC(=O)O)NC(=O)[C@H](C(C)(C)O)NC(=O)[C@H](CC3CCCCC3)NC(=O)[C@H](CCN)NC(=O)[C@@H](CC(C)C)NC(=O)[C@H](C)N(C)C(=O)[C@H](Cc3ccc(C(=O)O)cc3)NC(=O)[C@H](Cc3ccc(-c4ccccc4)cc3)NC(=O)[C@H](Cc3ccc(C(=O)O)cc3)NC2=O)c1 [Example 2485] ({CH2CO}-[4Pal]Y(Carboxymethyl)D[Phe(3-Me)][Phe(4-COOH)][Bip][Phe(4-COOH)][NMeA][dL][Dab][Cha][Val(3-OH)]EC[Dab][AEEA][Aun]-OH; thioether N-14)  0.0115 µM
4. CC(=O)NCCCC[C@@H]1NC(=O)[C@H](C(C)C)NC(=O)[C@H](CC2CCCCC2)NC(=O)[C@H](CCN)NC(=O)[C@@H](CC(C)C)NC(=O)[C@H](C)N(C)C(=O)[C@H](CCC(N)=O)NC(=O)[C@H](Cc2ccc(-c3ccccc3)cc2)NC(=O)[C@H](C(C)C)NC(=O)[C@H](Cc2c[nH]c3ccccc23)NC(=O)[C@H](CC(=O)O)NC(=O)[C@H](Cc2ccc(OCC(=O)O)cc2)NC(=O)[C@H](Cc2ccncc2)NC(=O)CSC[C@@H](C(=O)N[C@@H](CCN)C(=O)NCCOCCOCC(=O)NCCCCCCCCCCC(=O)O)NC1=O [Example 2491] ({CH2CO}-[4Pal]Y(Carboxymethyl)DWV[Bip]Q[NMeA][dL][Dab][Cha]VK(Ac)C[Dab][AEEA][Aun]-OH; thioether N-14)  0.0191 µM
5. Cc1cccc(C[C@@H]2NC(=O)[C@H](CC(=O)O)NC(=O)[C@H](Cc3ccc(C(=O)O)cc3)NC(=O)[C@H](Cc3ccsc3)NC(=O)CSC[C@@H](C(=O)N[C@@H](CCN)C(=O)NCCOCCOCC(=O)NCCOCCOCC(=O)NCCCCCCCCCCC(=O)O)NC(=O)[C@H](CCC(=O)O)NC(=O)[C@H](C(C)(C)O)NC(=O)[C@H](CC3CCCCC3)NC(=O)[C@H](CCN)NC(=O)[C@@H](CC(C)C)NC(=O)[C@H](C)N(C)C(=O)[C@H](Cc3ccc(OCC(=O)O)cc3)NC(=O)[C@H](Cc3ccc(-c4ccccc4)cc3)NC(=O)[C@H](Cc3ccc(OCC(=O)O)cc3)NC2=O)c1 [Example 2500] ({CH2CO}-[3Thi][Phe(4-COOH)]D[Phe(3-Me)]Y(Carboxymethyl)[Bip]Y(Carboxymethyl)[NMeA][dL][Dab][Cha][Val(3-OH)]EC[Dab][AEEA][AEEA][Aun]-OH; thioether N-14)  0.0195 µM
6. CC(C)C[C@H]1NC(=O)[C@H](C)N(C)C(=O)[C@H](CCC(N)=O)NC(=O)[C@H](Cc2ccc(-c3ccccc3)cc2)NC(=O)[C@H](C(C)C)NC(=O)[C@H](Cc2c[nH]c3ccccc23)NC(=O)[C@H](CC(=O)O)NC(=O)[C@H](Cc2ccc(OCC(=O)O)cc2)NC(=O)[C@H](Cc2ccncc2)NC(=O)CSC[C@@H](C(=O)N[C@@H](CCN)C(=O)NCCOCCOCC(=O)NCCCCCCCCCCC(=O)O)NC(=O)[C@H](CCC(=O)O)NC(=O)[C@H](C(C)C)NC(=O)[C@H](CC2CCCCC2)NC(=O)[C@H](CCN)NC1=O [Example 2492] ({CH2CO}-[4Pal]Y(Carboxymethyl)DWV[Bip]Q[NMeA][dL][Dab][Cha]VEC[Dab][AEEA][Aun]-OH; thioether N-14)  0.0311 µM
7. Cc1cccc(C[C@@H]2NC(=O)[C@H](CC(=O)O)NC(=O)[C@H](Cc3ccc(OCC(=O)O)cc3)NC(=O)[C@H](Cc3ccncc3)NC(=O)CSC[C@@H](C(=O)N[C@@H](CCCN)C(=O)NCCOCCOCC(=O)NCCCCCCCCCCC(=O)O)NC(=O)[C@H](CCC(=O)O)NC(=O)[C@H](C(C)(C)O)NC(=O)[C@H](CC3CCCCC3)NC(=O)[C@H](CCN)NC(=O)[C@@H](CC(C)C)NC(=O)[C@H](C)N(C)C(=O)[C@H](Cc3ccc(C(=O)O)cc3)NC(=O)[C@H](Cc3ccc(-c4ccccc4)cc3)NC(=O)[C@H](Cc3ccc(C(=O)O)cc3)NC2=O)c1 [Example 2497] ({CH2CO}-[4Pal]Y(Carboxymethyl)D[Phe(3-Me)][Phe(4-COOH)][Bip][Phe(4-COOH)][NMeA][dL][Dab][Cha][Val(3-OH)]EC[Orn][AEEA][Aun]-OH; thioether N-14)  0.0325 µM
8. Cc1cccc(C[C@@H]2NC(=O)[C@H](CC(=O)O)NC(=O)[C@H](Cc3ccc(C(=O)O)cc3)NC(=O)[C@H](Cc3ccncc3)NC(=O)CSC[C@@H](C(=O)N[C@@H](CCCN)C(=O)NCCOCCOCC(=O)NCCCCCCCCCCC(=O)O)NC(=O)[C@H](CCC(=O)O)NC(=O)[C@H](C(C)(C)O)NC(=O)[C@H](CC3CCCCC3)NC(=O)[C@H](Cc3cnc[nH]3)NC(=O)[C@@H](CC(C)C)NC(=O)[C@H](C)N(C)C(=O)[C@H](Cc3ccc(C(=O)O)cc3)NC(=O)[C@H](Cc3ccc(-c4ccccc4)cc3)NC(=O)[C@H](Cc3ccc(C(=O)O)cc3)NC2=O)c1 [Example 2498] ({CH2CO}-[4Pal][Phe(4-COOH)]D[Phe(3-Me)][Phe(4-COOH)][Bip][Phe(4-COOH)][NMeA][dL]H[Cha][Val(3-OH)]EC[Orn][AEEA][Aun]-OH; thioether N-14)  0.0362 µM
9. Cc1cccc(C[C@@H]2NC(=O)[C@H](CC(=O)O)NC(=O)[C@H](Cc3ccc(OCC(=O)O)cc3)NC(=O)[C@H](Cc3ccncc3)NC(=O)CSC[C@@H](C(=O)N[C@@H](CO)C(=O)NCCOCCOCC(=O)NCCCCCCCCCCC(=O)O)NC(=O)[C@H](CCC(=O)O)NC(=O)[C@H](C(C)(C)O)NC(=O)[C@H](CC3CCCCC3)NC(=O)[C@H](CCN)NC(=O)[C@@H](CC(C)C)NC(=O)[C@H](C)N(C)C(=O)[C@H](Cc3ccc(C(=O)O)cc3)NC(=O)[C@H](Cc3ccc(-c4ccccc4)cc3)NC(=O)[C@H](Cc3ccc(C(=O)O)cc3)NC2=O)c1 [Example 2496] ({CH2CO}-[4Pal]Y(Carboxymethyl)D[Phe(3-Me)][Phe(4-COOH)][Bip][Phe(4-COOH)][NMeA][dL][Dab][Cha][Val(3-OH)]ECS[AEEA][Aun]-OH; thioether N-14)  0.0671 µM
10. Cc1cccc(C[C@@H]2NC(=O)[C@H](CC(=O)O)NC(=O)[C@H](Cc3ccc(C(=O)O)cc3)NC(=O)[C@H](C(C)O)NC(=O)CSC[C@@H](C(=O)N[C@@H](CCCN)C(=O)NCCOCCOCC(=O)NCCCCCCCCCCC(=O)O)NC(=O)[C@H](CCC(=O)O)NC(=O)[C@H](C(C)(C)O)NC(=O)[C@H](CC3CCCCC3)NC(=O)[C@H](CCN)NC(=O)[C@@H](CC(C)C)NC(=O)[C@H](C)N(C)C(=O)[C@H](Cc3ccc(C(=O)O)cc3)NC(=O)[C@H](Cc3ccc(-c4ccccc4)cc3)NC(=O)[C@H](Cc3ccc(C(=O)O)cc3)NC2=O)c1 (stereo partly drawn) [Example 2499] ({CH2CO}-[Thr(3ξ)][Phe(4-COOH)]D[Phe(3-Me)][Phe(4-COOH)][Bip][Phe(4-COOH)][NMeA][dL][Dab][Cha][Val(3-OH)]EC[Orn][AEEA][Aun]-OH; thioether N-14)  0.078 µM
11. Cc1cccc(C[C@@H]2NC(=O)[C@H](CC(=O)O)NC(=O)[C@H](Cc3ccc(C(=O)O)cc3)NC(=O)[C@H](Cc3ccncc3)NC(=O)CSC[C@@H](C(=O)N[C@@H](CCN)C(=O)NCCOCCOCC(=O)NCCOCCOCC(=O)NCCCCCCCCCCC(=O)O)NC(=O)[C@H](CCC(=O)O)NC(=O)[C@H](C(C)(C)O)NC(=O)[C@H](CC3CCCCC3)NC(=O)[C@H](CCN)NC(=O)[C@@H](CC(C)C)NC(=O)[C@H](C)N(C)C(=O)[C@H](Cc3ccc(C(=O)O)cc3)NC(=O)[C@H](Cc3ccc(-c4ccccc4)cc3)NC(=O)[C@H](Cc3ccc(C(=O)O)cc3)NC2=O)c1 [Example 2495] ({CH2CO}-[4Pal][Phe(4-COOH)]D[Phe(3-Me)][Phe(4-COOH)][Bip][Phe(4-COOH)][NMeA][dL][Dab][Cha][Val(3-OH)]EC[Dab][AEEA][AEEA][Aun]-OH; thioether N-14)  0.107 µM
12. Cc1cccc(C[C@@H]2NC(=O)[C@H](CC(=O)O)NC(=O)[C@H](Cc3ccc(OCC(=O)O)cc3)NC(=O)[C@H](Cc3ccncc3)NC(=O)CSC[C@@H](C(=O)NCCOCCOCC(=O)NCCOCCOCC(=O)NCCCCCCCCCCC(=O)O)NC(=O)[C@H](CCC(=O)O)NC(=O)[C@H](C(C)(C)O)NC(=O)[C@H](CC3CCCCC3)NC(=O)[C@H](CCN)NC(=O)[C@@H](CC(C)C)NC(=O)[C@H](C)N(C)C(=O)[C@H](Cc3ccc(C(=O)O)cc3)NC(=O)[C@H](Cc3ccc(-c4ccccc4)cc3)NC(=O)[C@H](Cc3ccc(C(=O)O)cc3)NC2=O)c1 [Example 2486] ({CH2CO}-[4Pal]Y(Carboxymethyl)D[Phe(3-Me)][Phe(4-COOH)][Bip][Phe(4-COOH)][NMeA][dL][Dab][Cha][Val(3-OH)]EC[AEEA][AEEA][Aun]-OH; thioether N-14)  0.305 µM
